According to patent US7271181B2, “Inhibitors of p38” (Vertex Pharmaceuticals Incorporated, priority 2001, dated 2007):

What follows are compounds tested against T1, activated p38 (Homo sapiens, UniProt Q16539) (assay: p38 inhibition assay: inhibition of phosphorylation of EGF receptor peptide). Details: activated p38 5 nM, EGF receptor peptide 200 μM, ATP 100 μM, 30° C, 30 minutes.
T1 construct: amplify the coding region of CSBP2 cDNA using a HeLa cell library; made in house; host or cells: Trichoplusia ni (Tn-368) High-Five insect cells, baculovirus (virus generated in Sf9)
T1 sequence (Q16539 whole entry): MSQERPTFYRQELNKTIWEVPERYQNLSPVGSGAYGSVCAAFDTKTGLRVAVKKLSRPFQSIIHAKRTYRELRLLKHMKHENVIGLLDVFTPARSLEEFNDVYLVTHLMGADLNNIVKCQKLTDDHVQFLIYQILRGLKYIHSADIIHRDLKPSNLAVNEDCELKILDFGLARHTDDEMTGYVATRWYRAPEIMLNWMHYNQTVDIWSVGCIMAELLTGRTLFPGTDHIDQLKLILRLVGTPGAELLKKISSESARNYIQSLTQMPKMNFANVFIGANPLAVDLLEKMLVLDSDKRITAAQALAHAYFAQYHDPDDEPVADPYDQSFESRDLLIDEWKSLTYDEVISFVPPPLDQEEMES
Type: biochemical
Experimental: A. Inhibition of Phosphorylation of EGF Receptor Peptide
This assay was carried out in the presence of 10 mM MgCl2, 25 mM β-glycerophosphate, 10% glycerol and 100 mM HEPES buffer at pH 7.6. For a typical IC50 determination, a stock solution was prepared containing all of the above components and activated p38 (5 nM). The stock solution was aliquotted into vials. A fixed volume of DMSO or inhibitor in DMSO (final concentration of DMSO in reaction was 5%) was introduced to each vial, mixed and incubated for 15 minutes at room temperature. EGF receptor peptide, […], a phosphoryl acceptor in p38-catalyzed kinase reaction (1), was added to each vial to a final concentration of 200 μM. The kinase reaction was initiated with ATP (100 μM) and the vials were incubated at 30° C. After 30 minutes, the reactions were quenched with equal volume of 10% trifluoroacetic acid (TFA).
The phosphorylated peptide was quantified by HPLC analysis. Separation of phosphorylated peptide from the unphosphorylated peptide was achieved on a reverse phase column (Deltapak, 5 μm, C18 100D, Part no. 011795) with a binary gradient of water and acteonitrile, each containing 0.1% TFA. IC50 (concentration of inhibitor yielding 50% inhibition) was determined by plotting the percent (%) activity remaining against inhibitor concentration.
Work on `O=C(c1ccccc1)c1ccc(Nc2c(F)cccc2F)nc1` [Compound 101, (6-(2,6-Difluorophenylamino)-pyridin-3-yl]-phenylmethanone] yielded an IC50 of at most 1 µM. `O=C(c1ccc(Nc2c(F)cccc2F)nc1)c1cccc(Cl)c1` [Compound 102] gave an IC50 of at most 1 µM. In the case of `N#Cc1ccc(C(=O)c2ccc(Nc3c(F)cccc3F)nc2)cc1` [Compound 103], the IC50 is reported as 1 to 10 µM. With `Cc1cccc(C(=O)c2ccc(Nc3c(F)cccc3F)nc2)c1` [Compound 104] the IC50 was at most 1 µM. In the case of `CC(C)(C)c1ccc(C(=O)c2ccc(Nc3c(F)cccc3F)nc2)cc1` [Compound 105], the IC50 is reported as at most 1 µM. `O=C(c1ccc(Br)cc1)c1ccc(Nc2c(F)cccc2F)nc1` [Compound 106] showed an IC50 of at most 1 µM. Compound `O=C(c1ccc(Nc2c(F)cccc2F)nc1)c1ccccc1Cl` [Compound 107] has an IC50 of at most 1 µM. In the case of `O=C(c1ccc(-c2ccccc2)cc1)c1ccc(Nc2c(F)cccc2F)nc1` [Compound 108], the IC50 is reported as at most 1 µM. In the case of `O=C(c1ccc(Nc2c(F)cccc2F)nc1)c1ccc(Cl)c(Cl)c1` [Compound 109], the IC50 is reported as at least 10 µM. In the case of `O=C(c1ccc(Nc2c(F)cccc2F)nc1)c1ccc2ccccc2c1` [Compound 110], the IC50 is reported as at most 1 µM. `COc1ccc(C(=O)c2ccc(Nc3c(F)cccc3F)nc2)cc1OC` [Compound 111] gave an IC50 of 1 to 10 µM. `O=C(c1ccc(Cl)cc1)c1ccc(Nc2c(F)cccc2F)nc1` [Compound 112] gave an IC50 of at most 1 µM. `O=C(c1ccc(Nc2c(F)cccc2F)nc1)c1cc(Cl)ccc1Cl` [Compound 113] gave an IC50 of at most 1 µM. In the case of `Cc1cc(C(=O)c2ccc(Nc3c(F)cccc3F)nc2)ccc1Cl` [Compound 114], the IC50 is reported as at most 1 µM. With `COc1cc(OC)cc(C(=O)c2ccc(Nc3c(F)cccc3F)nc2)c1` [Compound 115] the IC50 was at most 1 µM. In the case of `O=C(c1ccc(Nc2c(F)cccc2F)nc1)c1sccc1-n1cccc1` [Compound 116], the IC50 is reported as at most 1 µM. With `Cc1occc1C(=O)c1ccc(Nc2c(F)cccc2F)nc1` [Compound 117] the IC50 was at most 1 µM. For `COc1cc(C(=O)c2ccc(Nc3c(F)cccc3F)nc2)cc(OC)c1OC` [Compound 118], the IC50 was 1 to 10 µM. With `CC(C)CC(=O)c1ccc(Nc2c(F)cccc2F)nc1` [Compound 119] the IC50 was at most 1 µM. With `O=C(c1ccc(Nc2c(F)cccc2F)nc1)c1cc2ccccc2s1` [Compound 120] the IC50 was 1 to 10 µM. Work on `OC(c1ccccc1)c1ccc(Nc2c(F)cccc2F)nc1` (centres unmarked) [Compound 201] yielded an IC50 of at most 1 µM. For `NC(=O)C(c1cc(C(F)(F)F)cc(C(F)(F)F)c1)c1ccc(SCc2ccco2)nn1` (centres unmarked) [Compound 301], the IC50 was 1 to 10 µM. `CCCCc1ccc(Nc2c(F)cccc2F)nc1` [Compound 401] was tested, and the IC50 was at least 10 µM. `NC(=O)N(c1ccc(C#CCOc2c(Cl)cccc2Cl)cn1)c1c(F)cccc1F` [Compound 402] was tested, and the IC50 was at least 10 µM. In the case of `[O-][S+](c1ccccc1)c1ccc(Nc2c(F)cccc2F)nc1` (centres unmarked) [Compound 501], the IC50 is reported as at least 10 µM. Compound `O=S(=O)(c1ccccc1)c1ccc(Nc2c(F)cccc2F)nc1` [Compound 502] has an IC50 of at least 10 µM. In the case of `Fc1cccc(F)c1Nc1ccc(Sc2ccccc2)cn1` [Compound 503], the IC50 is reported as at most 1 µM. `Cc1cccc(C(=O)c2ccc(N(C(=O)c3ccccc3)c3c(F)cccc3F)nc2)c1` [Compound 601] was tested, and the IC50 was 1 to 10 µM. Compound `COCC(=O)N(c1ccc(C(=O)c2cccc(C)c2)cn1)c1c(F)cccc1F` [Compound 602] has an IC50 of 1 to 10 µM. `Cc1cccc(C(=O)c2ccc(N(C(=O)c3snnc3C)c3c(F)cccc3F)nc2)c1` [Compound 603] was tested, and the IC50 was 1 to 10 µM. Compound `Cc1cccc(C(=O)c2ccc(N(C(=O)C(C)(C)C)c3c(F)cccc3F)nc2)c1` [Compound 604] has an IC50 of at most 1 µM. Compound `CC(=O)N(c1ccc(C(=O)c2cccc(C)c2)cn1)c1c(F)cccc1F` [Compound 605] has an IC50 of at most 1 µM. `Cc1cccc(C(=O)c2ccc(N(C(=O)c3ccc(Br)cc3)c3c(F)cccc3F)nc2)c1` [Compound 606] showed an IC50 of at least 10 µM. With `Cc1cccc(C(=O)c2ccc(N(C(=O)C3CCCCC3)c3c(F)cccc3F)nc2)c1` [Compound 607] the IC50 was at most 1 µM. Compound `COC(=O)CCC(=O)N(c1ccc(C(=O)c2cccc(C)c2)cn1)c1c(F)cccc1F` [Compound 608] has an IC50 of 1 to 10 µM. In the case of `Cc1cccc(C(=O)c2ccc(N(C(=O)c3sc4ccccc4c3Cl)c3c(F)cccc3F)nc2)c1` [Compound 609], the IC50 is reported as 1 to 10 µM. Work on `Cc1cccc(C(=O)c2ccc(N(C(=O)c3ccc(F)c(C(F)(F)F)c3)c3c(F)cccc3F)nc2)c1` [Compound 610] yielded an IC50 of at most 1 µM. `Cc1cccc(C(=O)c2ccc(N(C(=O)c3cccc(C(F)(F)F)c3)c3c(F)cccc3F)nc2)c1` [Compound 611] gave an IC50 of at most 1 µM. With `Cc1cccc(C(=O)c2ccc(N(C(=O)C(C)Oc3ccccc3)c3c(F)cccc3F)nc2)c1` (centres unmarked) [Compound 612] the IC50 was at least 10 µM. Work on `CCOC(=O)C(=O)N(c1ccc(C(=O)c2cccc(C)c2)cn1)c1c(F)cccc1F` [Compound 613] yielded an IC50 of at most 1 µM. `Cc1cccc(C(=O)c2ccc(N(C(=O)CC(C)C)c3c(F)cccc3F)nc2)c1` [Compound 614] gave an IC50 of at most 1 µM. `Cc1cc(C(=O)c2ccc(N(C(=O)c3ccc(Br)cc3)c3c(F)cccc3F)nc2)ccc1Cl` [Compound 615] was tested, and the IC50 was at least 10 µM. `COC(=O)CCC(=O)N(c1ccc(C(=O)c2ccc(Cl)c(C)c2)cn1)c1c(F)cccc1F` [Compound 616] showed an IC50 of at least 10 µM. `Cc1cc(C(=O)c2ccc(N(C(=O)C(C)Oc3ccccc3)c3c(F)cccc3F)nc2)ccc1Cl` (centres unmarked) [Compound 617] showed an IC50 of 1 to 10 µM. Work on `CCOC(=O)C(=O)N(c1ccc(C(=O)c2ccc(Cl)c(C)c2)cn1)c1c(F)cccc1F` [Compound 618] yielded an IC50 of 1 to 10 µM. `CCOC(=O)C(=O)N(c1ccc(C(=O)c2cc(OC)cc(OC)c2)cn1)c1c(F)cccc1F` [Compound 619] gave an IC50 of at most 1 µM. `O=C(c1ccc(N(C(=O)c2ccc(Br)cc2)c2c(F)cccc2F)nc1)c1sccc1-n1cccc1` [Compound 620] showed an IC50 of at most 1 µM. For `COC(=O)CCC(=O)N(c1ccc(C(=O)c2sccc2-n2cccc2)cn1)c1c(F)cccc1F` [Compound 621], the IC50 was 1 to 10 µM. In the case of `O=C(c1ccc(N(C(=O)c2sc3ccccc3c2Cl)c2c(F)cccc2F)nc1)c1sccc1-n1cccc1` [Compound 622], the IC50 is reported as at most 1 µM. Compound `O=C(c1ccc(N(C(=O)c2cccc(C(F)(F)F)c2)c2c(F)cccc2F)nc1)c1sccc1-n1cccc1` [Compound 623] has an IC50 of at most 1 µM. Compound `CC(Oc1ccccc1)C(=O)N(c1ccc(C(=O)c2sccc2-n2cccc2)cn1)c1c(F)cccc1F` (centres unmarked) [Compound 624] has an IC50 of at most 1 µM.

These compounds were tested against T1, activated p38 (assay: p38 inhibition assay: inhibition of ATPase activity). Details: ATPase activity of activated p38 (60 nM), various ATP concentrations.
Type: biochemical
Experimental: B. Inhibition of ATPase Activity
This assay is carried out in the presence of 10 mM MgCl2, 25 mM β-glycerophosphate, 10% glycerol and 100 mM HEPES buffer at pH 7.6. For a typical Ki determination, the Km for ATP in the ATPase activity of activated p38 reaction is determined in the absence of inhibitor and in the presence of two concentrations of inhibitor. A stock solution is prepared containing all of the above components and activated p38 (60 nM). The stock solution is aliquotted into vials. A fixed volume of DMSO or inhibitor in DMSO (final concentration of DMSO in reaction was 2.5%) is introduced to each vial, mixed and incubated for 15 minutes at room temperature. The reaction is initiated by adding various concentrations of ATP and then incubated at 30° C. After 30 minutes, the reactions are quenched with 50 μl of EDTA (0.1 M, final concentration), pH 8.0. The product of p38 ATPase activity, ADP, is quantified by HPLC analysis.
Separation of ADP from ATP is achieved on a reversed phase column (Supelcosil, LC-18, 3 μm, part no. 5-8985) using a binary solvent gradient of following composition: Solvent A—0.1 M phosphate buffer containing 8 mM tetrabutylammonium hydrogen sulfate (Sigma Chemical Co., catalogue no. T-7158), Solvent B—Solvent A with 30% methanol.
Ki is determined from the rate data as a function of inhibitor and ATP concentrations.
With `O=C(c1ccccc1)c1ccc(N(C(=O)CCc2ccccc2)c2c(F)cccc2F)nc1` [Compound 625] the Ki was 1 to 10 µM. `O=C(c1ccccc1)c1ccc(N(C(=O)Cc2ccc(F)cc2)c2c(F)cccc2F)nc1` [Compound 626] showed a Ki of 1 to 10 µM. Compound `O=C(c1ccccc1)c1ccc(N(C(=O)OCc2ccccc2)c2c(F)cccc2F)nc1` [Compound 627] has a Ki of 1 to 10 µM. For `O=C(c1ccccc1)c1ccc(N(C(=O)Oc2ccc(F)cc2)c2c(F)cccc2F)nc1` [Compound 628], the Ki was 1 to 10 µM. Work on `O=C(c1ccc(N(C(=O)CCc2ccccc2)c2c(F)cccc2F)nc1)c1ccccc1Cl` [Compound 629] yielded a Ki of 1 to 10 µM. `O=C(c1ccc(N(C(=O)Cc2ccc(F)cc2)c2c(F)cccc2F)nc1)c1ccccc1Cl` [Compound 630] showed a Ki of 1 to 10 µM. `O=C(c1ccc(N(C(=O)OCc2ccccc2)c2c(F)cccc2F)nc1)c1ccccc1Cl` [Compound 631] gave a Ki of 1 to 10 µM. In the case of `O=C(c1ccc(N(C(=O)Oc2ccc(F)cc2)c2c(F)cccc2F)nc1)c1ccccc1Cl` [Compound 632], the Ki is reported as 1 to 10 µM. In the case of `O=C(c1ccc(N(C(=O)CCc2ccccc2)c2c(F)cccc2F)nc1)c1sccc1-n1cccc1` [Compound 633], the Ki is reported as 1 to 10 µM. Work on `O=C(c1ccc(N(C(=O)Cc2ccc(F)cc2)c2c(F)cccc2F)nc1)c1sccc1-n1cccc1` [Compound 634] yielded a Ki of 1 to 10 µM. Compound `O=C(c1ccc(N(C(=O)OCc2ccccc2)c2c(F)cccc2F)nc1)c1sccc1-n1cccc1` [Compound 635] has a Ki of 1 to 10 µM.
